The results in this text go back to the Biogen ADME set (Fang et al. 2023).

The conditions of the series: for aqueous solubility: pH 6.8.

In brackets after ≈: the same amount, converted by molar mass.

In the case of `CC(C)c1nnc(CNC(=O)C2(C)CCC2)n1C`, the MDR1-MDCK efflux ratio worked out at 45.4; the intrinsic clearance, human liver microsomes is not above 4.74 mL/min/kg; the intrinsic clearance, rat liver microsomes was not above 10.7 mL/min/kg; the aqueous solubility is 51.8 µg/mL (≈ 207 µM).
Turning to `CN(C)S(=O)(=O)CCCN1CCc2ccccc2CC1`, the MDR1-MDCK efflux ratio was found to be 0.6; the intrinsic clearance, human liver microsomes turned out to be 15.9 mL/min/kg; the intrinsic clearance, rat liver microsomes amounted to 716 mL/min/kg.
Compound `CC(C)N1CCN(CCCSc2ncc[nH]2)CC1` came in with an intrinsic clearance, human liver microsomes not above 4.74 mL/min/kg and an intrinsic clearance, rat liver microsomes of 87.1 mL/min/kg.
Take `COc1cc(CN2CCC(c3ccnc(C)n3)CC2)ccc1F`: the MDR1-MDCK efflux ratio is 0.674; the intrinsic clearance, human liver microsomes amounted to 11.2 mL/min/kg; the intrinsic clearance, rat liver microsomes was 73.6 mL/min/kg; the aqueous solubility was determined as 71 µg/mL (≈ 225 µM).
As for `COc1ccc2nc(C)c(C(=O)Nc3ccccc3N3CCCC3)cc2c1`, the MDR1-MDCK efflux ratio came to 0.484; the intrinsic clearance, human liver microsomes was 182 mL/min/kg; the intrinsic clearance, rat liver microsomes stood at 985 mL/min/kg; the aqueous solubility is 8.4 µg/mL (≈ 23.2 µM).
Consider `CCNC(=O)C1CN(c2cccc(C#N)n2)C1`, for which the MDR1-MDCK efflux ratio was 2.07; the intrinsic clearance, human liver microsomes is not above 4.74 mL/min/kg; the intrinsic clearance, rat liver microsomes was not above 10.7 mL/min/kg; the aqueous solubility was determined as 42.9 µg/mL (≈ 186 µM).
Take `CCc1cc(CN(C)c2nccc(-c3ccc(C)nc3C)n2)on1`: the MDR1-MDCK efflux ratio is 0.673; the intrinsic clearance, human liver microsomes is 89.4 mL/min/kg; the intrinsic clearance, rat liver microsomes was found to be 1690 mL/min/kg; the aqueous solubility is 36.4 µg/mL (≈ 113 µM).
Taken in the same sequence, the figures for `Cn1ccc(NC(=O)[C@H]2CCCCN2C(=O)OC(C)(C)C)n1` were 2.54, not above 4.74 mL/min/kg, 154 mL/min/kg and 42.4 µg/mL (≈ 137 µM).
Turning to `CCC(C)(C)c1ccc(Oc2ccc(NC(=O)CSc3cccc[n+]3[O-])cc2)cc1`, the MDR1-MDCK efflux ratio came out at 2.2 and the aqueous solubility was found to be 0.45 µg/mL (≈ 1.06 µM).
With `Cc1cc(-c2nncc3c(C(C)(C)C)c(OCc4ncnn4C)nn23)no1`, the MDR1-MDCK efflux ratio stood at 8.04; the intrinsic clearance, human liver microsomes is not above 4.74 mL/min/kg; the intrinsic clearance, rat liver microsomes is 83.6 mL/min/kg.
Turning to `Cn1ccnc1CN(C(=O)c1[nH]c2ccccc2c1Cl)C1CC1`, the MDR1-MDCK efflux ratio turned out to be 12.4; the intrinsic clearance, human liver microsomes amounted to 90.5 mL/min/kg; the intrinsic clearance, rat liver microsomes is 2250 mL/min/kg; the aqueous solubility was found to be 62.3 µg/mL (≈ 189 µM).
As to `CCCc1cc(-c2nn3c(C4CCCC4)nnc3s2)n(C)n1`, the intrinsic clearance, human liver microsomes worked out at 99.4 mL/min/kg; the intrinsic clearance, rat liver microsomes worked out at 2230 mL/min/kg; the aqueous solubility is 13.5 µg/mL (≈ 42.5 µM).
As for `CCOc1ccnc(NCCCc2nc3cc(F)ccc3[nH]2)n1`, the MDR1-MDCK efflux ratio was 3.15; the intrinsic clearance, human liver microsomes amounted to 237 mL/min/kg; the intrinsic clearance, rat liver microsomes was 3280 mL/min/kg.
Consider `O=C(c1ccc(F)cc1)N1CCN(CC(=O)N2CCCC2=O)CC1`, for which the MDR1-MDCK efflux ratio stood at 10.4; the intrinsic clearance, human liver microsomes is not above 4.74 mL/min/kg; the intrinsic clearance, rat liver microsomes was found to be 14.1 mL/min/kg; the aqueous solubility is 94.8 µg/mL (≈ 284 µM).
Taken in the same sequence, the figures for `O=C(NCc1ccccc1)c1ccc(NS(=O)(=O)c2ccc(C3CCCCC3)cc2)cc1` were 2.69, 81 mL/min/kg, 402 mL/min/kg and 1.57 µg/mL (≈ 3.5 µM).
On to `Cc1ccc(CN(C)C(=O)c2cn(Cc3ccccc3F)nn2)cc1`, for which the MDR1-MDCK efflux ratio was determined as 0.764; the intrinsic clearance, human liver microsomes stood at 64.8 mL/min/kg; the intrinsic clearance, rat liver microsomes came out at 1090 mL/min/kg; the aqueous solubility is 11.4 µg/mL (≈ 33.7 µM).
Regarding `O=C(Nc1ccccn1)c1cccc2ccccc12`, the intrinsic clearance, human liver microsomes worked out at 131 mL/min/kg; the intrinsic clearance, rat liver microsomes amounted to 140 mL/min/kg; the aqueous solubility came out at 35.3 µg/mL (≈ 142 µM).
As for `CC(=O)Nc1ccc(C(=O)N2CCc3ncncc3C2)cc1`, the MDR1-MDCK efflux ratio was found to be 17.2; the intrinsic clearance, human liver microsomes was not above 4.74 mL/min/kg; the intrinsic clearance, rat liver microsomes is not above 10.7 mL/min/kg; the aqueous solubility amounted to 33.7 µg/mL (≈ 114 µM).
`Cc1nn(C)c(C)c1-c1cc(C(C)(C)C)nc(N(C)C)n1`: the MDR1-MDCK efflux ratio was 0.619; the intrinsic clearance, human liver microsomes was 51.6 mL/min/kg; the intrinsic clearance, rat liver microsomes was 366 mL/min/kg.
Regarding `O=C(CCCc1cc(Cl)sc1Cl)N1CC[C@H](O)C1`, the MDR1-MDCK efflux ratio was found to be 1.49; the intrinsic clearance, human liver microsomes came to 18.6 mL/min/kg; the intrinsic clearance, rat liver microsomes came to 506 mL/min/kg; the aqueous solubility came to 50 µg/mL (≈ 162 µM).
The compound `OC(CNCc1ccc(OCc2cccs2)cc1)c1ccccc1` (stereo not given) had an aqueous solubility of 42.9 µg/mL (≈ 126 µM).
As to `Clc1ccc(NCc2ccoc2)nn1`, the MDR1-MDCK efflux ratio turned out to be 0.594; the intrinsic clearance, human liver microsomes was not above 4.74 mL/min/kg; the intrinsic clearance, rat liver microsomes was not above 10.7 mL/min/kg; the aqueous solubility came to 21.5 µg/mL (≈ 102 µM).
`CCN(CC)C(=O)c1ccc(NC(C)=O)cc1`: the MDR1-MDCK efflux ratio was 1.95; the intrinsic clearance, human liver microsomes was not above 4.74 mL/min/kg; the intrinsic clearance, rat liver microsomes was 25.6 mL/min/kg; the aqueous solubility was 34.6 µg/mL (≈ 148 µM).
For `CN(CC(N)=O)Cc1cc2c(cc1Br)OCO2`, the MDR1-MDCK efflux ratio turned out to be 0.761; the intrinsic clearance, human liver microsomes worked out at 10.4 mL/min/kg; the intrinsic clearance, rat liver microsomes was 324 mL/min/kg; the aqueous solubility was 69.7 µg/mL (≈ 231 µM).
As for `O=C(c1ccc(Oc2ccccc2)cc1Cl)c1c[nH]c2ncnc(N[C@@H]3CC[C@@H](CO)OC3)c12`, the MDR1-MDCK efflux ratio turned out to be 6.8; the fraction unbound, human plasma turned out to be 0.00341; the fraction unbound, rat plasma turned out to be 0.00506; the intrinsic clearance, human liver microsomes was not above 4.74 mL/min/kg. The compound also yielded an intrinsic clearance, rat liver microsomes not above 10.7 mL/min/kg.
With `O=C(c1ccc(-c2ccncc2)cc1)N1CCC(O)(CN2CCCC2)CC1`, the MDR1-MDCK efflux ratio came to 17.7; the intrinsic clearance, human liver microsomes was not above 4.74 mL/min/kg; the intrinsic clearance, rat liver microsomes turned out to be 76 mL/min/kg.
`Cc1ccc(C(=O)Nc2cccc(C(=O)N(C)C)c2)cn1`: the MDR1-MDCK efflux ratio came to 23.2; the intrinsic clearance, human liver microsomes is not above 4.74 mL/min/kg; the intrinsic clearance, rat liver microsomes is not above 10.7 mL/min/kg; the aqueous solubility turned out to be 45.3 µg/mL (≈ 160 µM).
On to `O=S(=O)(NCc1n[nH]c2c1CCCCC2)c1ccc(OC(F)F)cc1`, for which the MDR1-MDCK efflux ratio is 7.25; the intrinsic clearance, human liver microsomes stood at 361 mL/min/kg; the intrinsic clearance, rat liver microsomes was 1760 mL/min/kg.
In the case of `COc1cc2c(cc1OC)-c1cc3ccc(OC)c(OC)c3c[n+]1CC2`, the MDR1-MDCK efflux ratio worked out at 22.5; the intrinsic clearance, human liver microsomes is not above 4.74 mL/min/kg; the intrinsic clearance, rat liver microsomes was determined as 23.4 mL/min/kg; the aqueous solubility is 54.1 µg/mL.
Regarding `Cc1cn2c3c(=O)n(Cc4ccccc4Cl)c(=O)n(C)c3nc2n1-c1ccccc1O`, the MDR1-MDCK efflux ratio is 12.8 and the aqueous solubility was 0.19 µg/mL (≈ 0.436 µM).
As to `C=CC(=O)Nc1cccc(Nc2nc(Nc3ccc(Oc4ccnc(C(=O)NC)c4)cc3)ncc2F)c1`, the MDR1-MDCK efflux ratio is 13.2; the fraction unbound, human plasma was determined as 0.00395; the intrinsic clearance, human liver microsomes stood at 66.5 mL/min/kg; the intrinsic clearance, rat liver microsomes stood at 322 mL/min/kg.
On to `N#Cc1cc(F)c(NS(=O)(=O)c2c[nH]c3cc(Cl)ccc23)cc1F`, for which the MDR1-MDCK efflux ratio turned out to be 2.57; the fraction unbound, human plasma was determined as 0.0094; the fraction unbound, rat plasma is 0.0056; the intrinsic clearance, human liver microsomes is not above 4.74 mL/min/kg. Further, the aqueous solubility is 66.1 µg/mL (≈ 180 µM).
For `O=C(Nc1ccc(N2CCOCC2)nc1)N1CCc2sccc2C1`, the MDR1-MDCK efflux ratio was determined as 1.91; the intrinsic clearance, human liver microsomes is 8.76 mL/min/kg; the intrinsic clearance, rat liver microsomes amounted to 109 mL/min/kg; the aqueous solubility was 25.8 µg/mL (≈ 74.8 µM).
Take `CN(C)C(=O)Cc1nc(-c2cc3cc(Cl)ccc3o2)cs1`: the aqueous solubility amounted to 2.41 µg/mL (≈ 7.51 µM).
Take `O=C(c1cc(F)ccc1F)N1CCN(C(=O)C2CC2)CC1`: the MDR1-MDCK efflux ratio was found to be 1.21; the intrinsic clearance, human liver microsomes is not above 4.74 mL/min/kg; the intrinsic clearance, rat liver microsomes worked out at 19.8 mL/min/kg.
Take `O=C(CC/C=C/c1ccccc1)Nc1ccccc1N1CCOC1=O`: the MDR1-MDCK efflux ratio worked out at 2.45; the intrinsic clearance, human liver microsomes amounted to 32.6 mL/min/kg; the intrinsic clearance, rat liver microsomes was found to be 776 mL/min/kg.
Consider `Cc1csc(CCNc2ncccc2C#N)n1`, for which the intrinsic clearance, human liver microsomes worked out at 73 mL/min/kg; the intrinsic clearance, rat liver microsomes was 876 mL/min/kg; the aqueous solubility was determined as 32.1 µg/mL (≈ 131 µM).
Consider `COc1ccc(-c2nn3c(-c4ccco4)nnc3c3ccccc23)cc1`, for which the MDR1-MDCK efflux ratio came out at 0.526 and the aqueous solubility amounted to 0.18 µg/mL (≈ 0.526 µM).
On to `Cc1cnc(C(C)(C)NCC(=O)N(C)C)s1`, for which the MDR1-MDCK efflux ratio was determined as 1.86; the intrinsic clearance, human liver microsomes was not above 4.74 mL/min/kg; the intrinsic clearance, rat liver microsomes amounted to 20.9 mL/min/kg.
In the case of `CN(CC(=O)NC1CC1)C(=O)C1C2CC3CC(C2)CC1C3` (stereo not given), the MDR1-MDCK efflux ratio came to 1.58; the intrinsic clearance, human liver microsomes turned out to be 21.7 mL/min/kg; the intrinsic clearance, rat liver microsomes was 463 mL/min/kg; the aqueous solubility is 50.8 µg/mL (≈ 175 µM).
As for `CCN1C(=O)CC[C@H](C(=O)N2CCc3cc(F)cc(C)c3C2)[C@H]1c1ccncc1`, the MDR1-MDCK efflux ratio is 51.4; the intrinsic clearance, human liver microsomes came to 185 mL/min/kg; the intrinsic clearance, rat liver microsomes came out at 473 mL/min/kg; the aqueous solubility came out at 70.2 µg/mL (≈ 178 µM).
For `CNCc1cc(N(C)C)nc(C2CCCN2C(=O)c2oc3ccc(Cl)cc3c2C)n1` (stereo not given), the MDR1-MDCK efflux ratio turned out to be 117; the intrinsic clearance, human liver microsomes is 44.7 mL/min/kg; the intrinsic clearance, rat liver microsomes worked out at 840 mL/min/kg.
In the case of `O=C(CNc1ccc(C(=O)N2CCCC2)cc1)N1CCCCC1`, the MDR1-MDCK efflux ratio is 5.78; the intrinsic clearance, human liver microsomes was not above 4.74 mL/min/kg; the intrinsic clearance, rat liver microsomes was determined as 92.7 mL/min/kg; the aqueous solubility was determined as 54.2 µg/mL (≈ 172 µM).
Turning to `c1ccc(Cc2n[nH]c(CSc3ccccc3)n2)cc1`, the MDR1-MDCK efflux ratio stood at 0.734; the intrinsic clearance, human liver microsomes stood at 89.2 mL/min/kg; the intrinsic clearance, rat liver microsomes was determined as 1320 mL/min/kg; the aqueous solubility is 16.8 µg/mL (≈ 59.8 µM).
`Cc1ccc(F)c(N(C#N)Cc2nccn2C(F)F)c1`: the MDR1-MDCK efflux ratio was determined as 0.613; the intrinsic clearance, human liver microsomes was 19.9 mL/min/kg; the intrinsic clearance, rat liver microsomes was found to be 225 mL/min/kg; the aqueous solubility came to 45.1 µg/mL (≈ 161 µM).

As usually defined, the aqueous solubility is how much of the substance goes into solution per volume. Higher therefore signals a readily soluble substance.
